Legend:
[1] = molecular target: T1, Human HDAC1 (Homo sapiens, UniProt Q13547); assay: Biochemical HDAC inhibition assay, acetylated AMC-labeled peptide substrate, HDAC1; conditions: 2 hours at 30° C., read-out: IC50 (nM) HDAC 1
T1 construct: full length with C-terminal His-tag and C-terminal FLAG-tag; His-tag (C); FLAG-tag (C); host or cells: baculovirus expression system
Procedure: (§1) Activity against all zinc-dependent HDACs 1 to 11 was assessed by using an acetylated AMC-labeled peptide substrate. The substrate RHKKAc was used for all class I and IIb HDACs; for HDAC8, the substrate used was RHKAcKAc. Activity against the class IIa HDACs (HDAC4, 5, 7, 9) was determined using a class IIa-specific substrate, Acetyl-Lys(trifluoroacetyl)-AMC (Lahm et al, 2007, PNAS, 104, 17335-17340). All assays were based on the AMC-labeled substrate and developer combination.
(§2) The protocol involved a two-step reaction: first, the substrate with the acetylated lysine side chain is incubated with a sample containing HDAC activity, to produce the deacetylated products, which are then digested in the second step by the addition of developer to produce the fluorescent signal proportional to the amount of deacetylated substrates.
Human HDAC1 (GenBank Accession No. NM_004964), full length with C-terminal His-tag and C-terminal FLAG-tag, MW=56 kDa, expressed in baculovirus expression system.
(§3) Assay Buffer: 50 mM Tris-HCl, pH8.0, 137 mM NaCl, 2.7 mM KCl, 1 mM MgCl2. Before use, 1 mg/mL BSA and DMSO are added.
HDAC1: 2.68 nM HDAC1 and 50 m M HDAC substrate are in the reaction buffer with 1% DMSO final. Incubate for 2 hours at 30° C.
(§4) Stage 1: Deacetylation of substrate by incubation of HDAC enzymes with corn pounds
(§5) Stage 2: Development by addition of Developer to digest the deacetylated substrate, and generate the fluorescent colour; Detection: 360/460 Ex/Em

[2] = molecular target: T2, Recombinant human HDAC6 (Homo sapiens, UniProt Q9UBN7); assay: Biochemical HDAC inhibition assay, acetylated AMC-labeled peptide substrate, HDAC6; conditions: 2 hours at 30° C., read-out: IC50 (nM) HDAC 6
T2 construct: full length, MW=180 kDa, was expressed by baculovirus in Sf9 insect cells; GST (N); host or cells: Sf9 insect cells (baculovirus)
T2 sequence (Q9UBN7 1-1215): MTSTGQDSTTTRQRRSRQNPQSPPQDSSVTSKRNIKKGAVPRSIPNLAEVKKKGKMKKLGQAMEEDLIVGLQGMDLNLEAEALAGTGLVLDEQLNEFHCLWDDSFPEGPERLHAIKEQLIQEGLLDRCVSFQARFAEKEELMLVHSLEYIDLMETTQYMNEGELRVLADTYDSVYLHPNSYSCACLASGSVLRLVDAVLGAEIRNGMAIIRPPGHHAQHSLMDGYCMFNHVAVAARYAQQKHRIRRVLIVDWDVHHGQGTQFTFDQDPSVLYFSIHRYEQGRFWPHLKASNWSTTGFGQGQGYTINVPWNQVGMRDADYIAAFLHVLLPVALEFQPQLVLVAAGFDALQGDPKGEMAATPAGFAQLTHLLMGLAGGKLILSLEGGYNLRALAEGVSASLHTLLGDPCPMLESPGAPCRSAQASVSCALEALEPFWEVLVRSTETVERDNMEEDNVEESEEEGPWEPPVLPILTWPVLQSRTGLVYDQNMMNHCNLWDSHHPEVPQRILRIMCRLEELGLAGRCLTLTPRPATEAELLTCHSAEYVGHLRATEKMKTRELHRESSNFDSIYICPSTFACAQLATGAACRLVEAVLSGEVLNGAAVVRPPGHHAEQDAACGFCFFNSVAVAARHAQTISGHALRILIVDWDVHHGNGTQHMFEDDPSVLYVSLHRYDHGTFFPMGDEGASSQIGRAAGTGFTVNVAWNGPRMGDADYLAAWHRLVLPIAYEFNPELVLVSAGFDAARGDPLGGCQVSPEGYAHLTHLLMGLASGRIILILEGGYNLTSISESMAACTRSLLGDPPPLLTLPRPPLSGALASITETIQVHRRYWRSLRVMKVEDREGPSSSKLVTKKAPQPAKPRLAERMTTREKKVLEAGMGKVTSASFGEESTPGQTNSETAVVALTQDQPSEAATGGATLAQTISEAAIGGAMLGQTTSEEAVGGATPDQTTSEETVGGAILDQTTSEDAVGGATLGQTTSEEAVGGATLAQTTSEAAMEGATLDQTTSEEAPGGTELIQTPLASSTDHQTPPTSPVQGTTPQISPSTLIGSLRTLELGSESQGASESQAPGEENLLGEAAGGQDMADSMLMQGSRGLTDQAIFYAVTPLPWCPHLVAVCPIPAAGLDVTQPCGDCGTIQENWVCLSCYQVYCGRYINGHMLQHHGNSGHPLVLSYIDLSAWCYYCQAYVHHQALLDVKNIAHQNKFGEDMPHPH
Procedure: as §1, §2
Recombinant human HDAC6 (GenBank Accession No. BC069243), full length, MW=180 kDa, was expressed by baculovirus in Sf9 insect cells using an N-terminal GST tag.
as §3
HDAC6: 0.56 nM HDAC6 and […] HDAC substrate are in the reaction buffer with 1% DMSO final. Incubate for 2 hours at 30° C.
as §4, §5

T1 sequence (Q13547 whole entry): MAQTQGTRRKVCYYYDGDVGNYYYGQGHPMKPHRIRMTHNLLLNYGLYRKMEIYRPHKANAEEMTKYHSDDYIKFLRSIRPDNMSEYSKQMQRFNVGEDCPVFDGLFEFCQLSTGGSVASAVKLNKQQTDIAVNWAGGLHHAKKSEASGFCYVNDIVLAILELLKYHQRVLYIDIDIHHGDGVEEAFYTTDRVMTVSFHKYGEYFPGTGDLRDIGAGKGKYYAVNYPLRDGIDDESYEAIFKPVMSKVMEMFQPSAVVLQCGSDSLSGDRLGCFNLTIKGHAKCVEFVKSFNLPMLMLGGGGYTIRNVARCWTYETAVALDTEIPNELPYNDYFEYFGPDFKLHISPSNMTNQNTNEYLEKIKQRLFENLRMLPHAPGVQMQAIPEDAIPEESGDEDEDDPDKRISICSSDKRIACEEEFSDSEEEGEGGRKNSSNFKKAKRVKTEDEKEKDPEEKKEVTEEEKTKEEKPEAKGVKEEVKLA

SMILES | IC50 [1] [nM] | IC50 [2] [nM]
Nc1ncc(-c2ccnc(N(Cc3ccc(C(=O)NO)cc3)c3cnccn3)c2)cn1 [Example A, 4-({[4-(2-Aminopyrimidin-5-yl)pyridin-2-yl](pyrazin-2-yl)amino}methyl)-N-hydroxybenzamide] | 1000 to 10000 | ≤ 500
O=C(NO)c1ccc(CN(c2cnccn2)c2cc(-c3cnc4[nH]ccc4c3)ccn2)cc1 [Example B, N-Hydroxy-4-{[(pyrazin-2-yl)(4-{1H-pyrrolo[2,3-b]pyridin-5-yl}pyridin-2-yl)amino]methyl}benzamide] | 1000 to 10000 | ≤ 500
O=C(NO)c1ccc(CN(c2cnccn2)c2cc(-c3ccc4[nH]ccc4c3)ccn2)cc1 [Example C, N-Hydroxy-4-({[4-(1H-indol-5-yl)pyridin-2-yl](pyrazin-2-yl)amino}methyl)benzamide] | 500 to 1000 | ≤ 500
O=C(NO)c1ccc(CN(c2cnccn2)c2cc(-c3cn[nH]c3)ccn2)cc1 [Example D, N-Hydroxy-4-{[(pyrazin-2-yl)[4-(1H-pyrazol-4-yl)pyridin-2-yl]amino]methyl}benzamide] | 1000 to 10000 | ≤ 500
O=C(NO)c1ccc(CN(c2cnccn2)c2cc(-c3ccoc3)ccn2)cc1 [Example E, 4-({[4-(Furan-3-yl)pyridin-2-yl](pyrazin-2-yl)amino}methyl)-N-hydroxybenzamide] | 500 to 1000 | ≤ 500
Cc1cc(-c2ccnc(N(Cc3ccc(C(=O)NO)cc3)c3cnccn3)c2)c(C)o1 [Example F, 4-({[4-(2,5-Dimethylfuran-3-yl)pyridin-2-yl](pyrazin-2-yl)amino}methyl)-N-hydroxybenzamide] | 1000 to 10000 | ≤ 500
O=C(NO)c1ccc(CN(c2cnccn2)c2cc(-c3c[nH]nc3C(F)(F)F)ccn2)cc1 [Example G, N-Hydroxy-4-{[(pyrazin-2-yl)({4-[3-(trifluoromethyl)-1H-pyrazol-4-yl]pyridin-2-yl})amino]methyl}benzamide] | 1000 to 10000 | ≤ 500
Cc1noc(C)c1-c1ccnc(N(Cc2ccc(C(=O)NO)cc2)c2cnccn2)c1 [Example H, 4-({[4-(Dimethyl-1,2-oxazol-4-yl)pyridin-2-yl](pyrazin-2-yl)amino}methyl)-N-hydroxybenzamide] | ≥ 10000 | ≤ 500
Cc1n[nH]cc1-c1ccnc(N(Cc2ccc(C(=O)NO)cc2)c2cnccn2)c1 [Example I, N-Hydroxy-4-({[4-(3-methyl-1H-pyrazol-4-yl)pyridin-2-yl](pyrazin-2-yl)amino}methyl)benzamide] | ≥ 10000 | ≤ 500
Cc1n[nH]c(C)c1-c1ccnc(N(Cc2ccc(C(=O)NO)cc2)c2cnccn2)c1 [Example J, 4-({[4-(3,5-Dimethyl-1H-pyrazol-4-yl)pyridin-2-yl](pyrazin-2-yl)amino}methyl)-N-hydroxybenzamide] | 1000 to 10000 | ≤ 500
O=C(NO)c1ccc(CN(c2cnccn2)c2cc(-c3c[nH]c4ncccc34)ccn2)cc1 [Example K, N-Hydroxy-4-{[(pyrazin-2-yl)(4-{1H-pyrrolo[2,3-b]pyridin-3-yl}pyridin-2-yl)amino]methyl}benzamide] | 1000 to 10000 | ≤ 500
O=C(NO)c1ccc(CN(c2cnccn2)c2cc(-c3cc[nH]n3)ccn2)cc1 [Example L, N-Hydroxy-4-{[(pyrazin-2-yl)[4-(1H-pyrazol-3-yl)pyridin-2-yl]amino]methyl}benzamide] | 1000 to 10000 | ≤ 500
Nc1ncc(-c2ccnc(N(Cc3ccc(C(=O)NO)cc3)c3cnccn3)c2)cc1F [Example M, 4-({[4-(6-Amino-5-fluoropyridin-3-yl)pyridin-2-yl](pyrazin-2-yl)amino}methyl)-N-hydroxybenzamide] | 1000 to 10000 | ≤ 500
CC(=O)Nc1ccc(-c2ccnc(N(Cc3ccc(C(=O)NO)cc3)c3cnccn3)c2)cn1 [Example N, 4-({[4-(6-Acetamidopyridin-3-yl)pyridin-2-yl](pyrazin-2-yl)amino}methyl)-N-hydroxybenzamide] | 1000 to 10000 | ≤ 500
CC(=O)Nc1cc(-c2ccnc(N(Cc3ccc(C(=O)NO)cc3)c3cnccn3)c2)ccn1 [Example O, 4-({[4-(2-Acetamidopyridin-4-yl)pyridin-2-yl](pyrazin-2-yl)amino}methyl)-N-hydroxybenzamide] | 1000 to 10000 | ≤ 500
Nc1ccc(-c2ccnc(N(Cc3ccc(C(=O)NO)cc3F)c3cnccn3)c2)cn1 [Example P, 4-({[4-(6-Aminopyridin-3-yl)pyridin-2-yl](pyrazin-2-yl)amino}methyl)-3-fluoro-N-hydroxybenzamide] | 500 to 1000 | ≤ 500
Nc1cc(-c2ccnc(N(Cc3ccc(C(=O)NO)cc3F)c3cnccn3)c2)ccn1 [Example Q, 4-({[4-(2-Aminopyridin-4-yl)pyridin-2-yl](pyrazin-2-yl)amino}methyl)-3-fluoro-N-hydroxybenzamide] | 1000 to 10000 | ≤ 500
CC(=O)Nc1ccc(-c2ccnc(N(Cc3ccc(C(=O)NO)cc3F)c3cnccn3)c2)cn1 [Example R, 4-({[4-(6-Acetamidopyridin-3-yl)pyridin-2-yl](pyrazin-2-yl)amino}methyl)-3-fluoro-N-hydroxybenzamide] | 1000 to 10000 | ≤ 500
CC(=O)Nc1cc(-c2ccnc(N(Cc3ccc(C(=O)NO)cc3F)c3cnccn3)c2)ccn1 [Example S, 4-({[4-(2-Acetamidopyridin-4-yl)pyridin-2-yl](pyrazin-2-yl)amino}methyl)-3-fluoro-N-hydroxybenzamide] | 1000 to 10000 | ≤ 500
CS(=O)(=O)Nc1ccc(-c2ccnc(N(Cc3ccc(C(=O)NO)cc3F)c3cnccn3)c2)cn1 [Example T, 3-Fluoro-N-hydroxy-4-({[4-(6-methanesulfonamidopyridin-3-yl)pyridin-2-yl](pyrazin-2-yl)amino}methyl)benzamide] | ≥ 10000 | ≤ 500
CS(=O)(=O)Nc1cc(-c2ccnc(N(Cc3ccc(C(=O)NO)cc3F)c3cnccn3)c2)ccn1 [Example U, 3-Fluoro-N-hydroxy-4-({[4-(2-methanesulfonamidopyridin-4-yl)pyridin-2-yl](pyrazin-2-yl)amino}methyl)benzamide] | ≥ 10000 | ≤ 500

— patent US10533003B2, “Polyheteroarl histone deacetylase inhibitors and their use in therapy” (Karus Therapeutics Limited, priority 2014, dated 2020)
